Experimental data from patent US10981891B2, “Antibacterial compounds and uses thereof” (priority 2016, dated 2021).
Values after ≈ are worked out from the molar mass of the structure shown.

System: M. tuberculosis H37Rv (ATCC 27294)
Test: Microplate Alamar Blue assay (MABA), MIC against replicating M. tuberculosis H37Rv
Assay type: cell-based
Conditions: Mycobacterium tuberculosis, 168 h; H37Rv, MABA, 7H12 media, 7 days at 37° C.; MIC = lowest concentration reducing fluorescence by 90% relative to controls; read-out: M. tuberculosis MIC

SMILES	MIC [µg/mL]
COc1nc2ccc(C#N)cc2cc1C(c1cccc(C)c1F)C(O)(CCN(C)C)c1cc(SC)nc(SC)c1 (stereo not drawn) [Example 89, 3-(2-(2,6-Bis(methylthio)pyridin-4-yl)-4-(dimethylamino)-1-(2-fluoro-3-methylphenyl)-2-hydroxybutyl)-2-methoxyquinoline-6-carbonitrile]	0.02 (≈ 0.0347 µM)
COc1nc2ccc(C#N)cc2cc1C(c1cccc2c1OCCO2)C(O)(CCN(C)C)c1cc(SC)nc(SC)c1 (stereo not drawn) [Example 90, 3-(2-(2,6-Bis(methylthio)pyridin-4-yl)-1-(2,3-dihydrobenzo[b][1,4]dioxin-5-yl)-4-(dimethylamino)-2-hydroxybutyl)-2-methoxyquinoline-6-carbonitrile]	0.01 (≈ 0.0166 µM)
COc1cc(C(O)(CCN(C)C)C(c2cc3cc(C#N)ccc3nc2OC)c2cccc3c2OCCO3)cc(OC(F)F)n1 (stereo not drawn) [Example 91, 3-(2-(2-(Difluoromethoxy)-6-methoxypyridin-4-yl)-1-(2,3-dihydrobenzo[b][1,4]dioxin-5-yl)-4-(dimethylamino)-2-hydroxybutyl)-2-methoxyquinoline-6-carbonitrile]	0.02 (≈ 0.033 µM)
CNCCC(O)(c1cc(OC)nc(OC)c1)C(c1cc2cc(C#N)ccc2nc1OC)c1cccc2c1OCCO2 (stereo not drawn) [Example 93, 3-(1-(2,3-Dihydrobenzo[b][1,4]dioxin-5-yl)-2-(2,6-dimethoxypyridin-4-yl)-2-hydroxy-4-(methylamino)butyl)-2-methoxyquinoline-6-carbonitrile]	0.01 (≈ 0.018 µM)
COc1cc(C(O)(CCN(C)C)C(c2cc3cc(C#N)ccc3nc2OC)c2ccnc(OC)c2OC)cc(N(C)C)n1 (stereo not drawn) [Example 94, 3-(1-(2,3-Dimethoxypyridin-4-yl)-4-(dimethylamino)-2-(2-(dimethylamino)-6-methoxypyridin-4-yl)-2-hydroxybutyl)-2-methoxyquinoline-6-carbonitrile]	0.06 (≈ 0.102 µM)
CNCCC(O)(c1cc(OC)nc(OC)c1)C(c1cccc(F)c1)c1cc2cc(C#N)ccc2nc1OC (stereo not drawn) [Example 97, 3-(2-(2,6-Dimethoxypyridin-4-yl)-1-(3-fluorophenyl)-2-hydroxy-4-(methylamino)butyl)-2-methoxyquinoline-6-carbonitrile]	0.01 (≈ 0.0194 µM)
